From patent US7534788B2, “Benzofuran and benzothiophene-2-carboxylic acid amide derivatives” (Hoffmann-La Roche Inc., priority 2007, dated 2009)

biological target: T1, histamine 3 receptor (H3R) (Homo sapiens, UniProt Q9Y5N1); test: Binding assay with 3H-(R)α-methylhistamine (competition binding); conditions: competition with 3H(R)α-methylhistamine (1 nM), membranes of the human HR3-CHO cell line; Ki calculated from IC50 by Cheng-Prusoff
T1 construct: expressed in transfected cells; host or cells: CHO cells (HR3-CHO)
Experimental: Binding Assay with ^3H—(R)α-methylhistamine
Saturation binding experiments were performed using HR3-CHO membranes prepared as described in Takahashi, K, Tokita, S., Kotani, H. (2003) J. Pharmacol. Exp. Therapeutics 307, 213-218.
An appropriate amount of membrane (60 to 80 μg protein/well) was incubated with increasing concentrations of ^3H(R)α-Methylhistamine di-hydrochloride (0.10 to 10 nM). Non specific binding was determined using a 200 fold excess of cold (R)α-Methylhistamine dihydrobromide (500 nM final concentration). The incubation was carried out at room temperature (in deep-well plates shaking for three hours). The final volume in each well was 250 μl. The incubation was followed by rapid filtration on GF/B filters (pre-soaked with 100 μl of 0.5% PEI in Tris 50 mM shaking at 200 rpm for two hours). The filtration was made using a cell-harvester and the filter plates were then washed five times with ice cold washing buffer containing 0.5 M NaCl. After harvesting, the plates were dried at 55° C. for 60 min, then scintillation fluid (Microscint 40, 40 microl in each well) was added and the amount of radioactivity on the filter was determined in Packard top-counter after shaking the plates for two hours at 200 rpm at room temperature.
Binding Buffer: 50 mM Tris-HCl pH 7.4 and 5 mM MgCl2×6H2O pH 7.4. Washing Buffer: 50 mM Tris-HCl pH 7.4 and 5 mM MgCl2×6H2O and 0.5 M NaCl pH 7.4.
Indirect measurement of affinity of H3R inverse agonists: twelve increasing concentrations (ranging from 10 μM to 0.3 nM) of the selected compounds were always tested in competition binding experiments using membranes of the human HR3-CHO cell line. An appropriate amount of protein, e.g. approximately 500 cpm binding of RAMH at Kd, were incubated for 1 hour at room temperature in 250 μl final volume in 96-well plates in presence of ^3H(R)α-Methylhistamine (1 nM final concentration=Kd). Non-specific binding was determined using a 200 fold excess of cold (R)α-Methylhistamine dihydrobromide.
All compounds were tested at a single concentration in duplicate. […] The concentration at which 50% inhibition of the radioligand ^3H(R)α-methylhistamine is obtained (the IC50) is determined from the linear regression of a plot of the logarithm of the concentration versus percent inhibition measured for the different concentrations. Ki's were calculated from IC50 based on Cheng-Prusoff equation (Cheng, Y, Prusoff, W H (1973) Biochem Pharmacol 22, 3099-3108): Ki=IC50/[1+D/Kd] wherein D is the concentration of the radioligand and Kd is the binding constant for the radioligand binding to the receptor under the conditions used in the competition experiment.

T1 sequence (Q9Y5N1 whole entry): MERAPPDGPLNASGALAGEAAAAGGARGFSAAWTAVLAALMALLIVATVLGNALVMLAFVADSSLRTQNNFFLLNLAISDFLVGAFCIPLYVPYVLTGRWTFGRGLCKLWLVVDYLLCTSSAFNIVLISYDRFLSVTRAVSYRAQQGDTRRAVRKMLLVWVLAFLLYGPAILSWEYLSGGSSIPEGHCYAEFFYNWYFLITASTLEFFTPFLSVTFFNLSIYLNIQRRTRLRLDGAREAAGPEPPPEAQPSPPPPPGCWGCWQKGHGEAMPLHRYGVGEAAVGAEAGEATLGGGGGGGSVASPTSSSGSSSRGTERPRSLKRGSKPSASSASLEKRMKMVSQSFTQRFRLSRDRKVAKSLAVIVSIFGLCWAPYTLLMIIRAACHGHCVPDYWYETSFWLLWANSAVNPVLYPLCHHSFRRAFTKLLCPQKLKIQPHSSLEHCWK

| Ki [nM] | Compound |
| --- | --- |
| 1.5 | CC(C)N1CCC(Oc2cc3cc(C(=O)N4CCS(=O)(=O)CC4)sc3cc2Cl)CC1 [Example 69, [6-Chloro-5-(1-isopropyl-piperidin-4-yloxy)-benzo[b]thiophen-2-yl]-(1,1-dioxo-1λ6thiomorpholin-4-yl)-methanone] |
| 2.6 | Cc1c(C(=O)N2CCC(F)(F)CC2)oc2cc(OC3CCN(C4CCC4)CC3)c(Cl)cc12 [Example 91, [5-Chloro-6-(1-cyclobutyl-piperidin-4-yloxy)-3-methyl-benzofuran-2-yl]-(4,4-difluoro-piperidin-1-yl)-methanone] |
| 0.4 | COC(=O)N1CCN(C(=O)c2oc3cc(OC4CCN(C(C)C)CC4)ccc3c2-c2ccc(F)cc2)CC1 [Example 45, 4-[3-(4-Fluoro-phenyl)-6-(1-isopropyl-piperidin-4-yloxy)-benzofuran-2-carbonyl]-piperazine-1-carboxylic acid methyl ester] |
| 0.1 | O=C(c1oc2cc(OC3CCN(C4CCC4)CC3)ccc2c1-c1ccc(F)cc1)N1CCC(F)(F)CC1 [Example 65, [6-(1-Cyclobutyl-piperidin-4-yloxy)-3-(4-fluoro-phenyl)-benzofuran-2-yl]-(4,4-difluoro-piperidin-1-yl)-methanone] |
| 0.4 | CC(C)N1CCC(Oc2cc3oc(C(=O)N4CCS(=O)(=O)CC4)c(-c4ccc(F)cc4)c3cc2Cl)CC1 [Example 82, [5-Chloro-3-(4-fluoro-phenyl)-6-(1-isopropyl-piperidin-4-yloxy)-benzofuran-2-yl]-(1,1-dioxo-1λ6thiomorpholin-4-yl)-methanone] |
| 2.3 | COC(=O)N1CCN(C(=O)c2oc3cc(OC4CCN(C5CCC5)CC4)c(Cl)cc3c2C)CC1 [Example 94, 4-[5-Chloro-6-(1-cyclobutyl-piperidin-4-yloxy)-3-methyl-benzofuran-2-carbonyl]-piperazine-1-carboxylic acid methyl ester] |
| 0.8 | COC(=O)N1CCN(C(=O)c2oc3cc(OC4CCN(C(C)C)CC4)c(Cl)cc3c2C(C)C)CC1 [Example 72, 4-[5-Chloro-3-isopropyl-6-(1-isopropyl-piperidin-4-yloxy)-benzofuran-2-carbonyl]-piperazine-1-carboxylic acid methyl ester] |
| 0.5 | COC(=O)N1CCN(C(=O)c2oc3cc(OC4CCN(C5CCC5)CC4)c(Cl)cc3c2C(C)C)CC1 [Example 76, 4-[5-Chloro-6-(1-cyclobutyl-piperidin-4-yloxy)-3-isopropyl-benzofuran-2-carbonyl]-piperazine-1-carboxylic acid methyl ester] |
| 1.3 | CC(C)N1CCC(Oc2ccc3c(-c4ccccc4)c(C(=O)N4CCC(F)(F)CC4)oc3c2)CC1 [Example 17, (4,4-Difluoro-piperidin-1-yl)-[6-(1-isopropyl-piperidin-4-yloxy)-3-phenyl-benzofuran-2-yl]-methanone] |
